Experimental data reported in patent US8574563B2 (Bristol-Myers Squibb Company, priority 2006, dated 2013).

System: HCV 1b-377-neo replicon cells
Assay: HCV replicon assay, HCV 1b-377-neo replicon cells (1b FRET)
Type: cell-based, Hepatitis C virus genotype 1b
Conditions: Hepatitis C virus, HCV 1b-377-neo replicon cells; HCV 1b genotype; read-out: EC50 range against HCV 1b (Table 2, Range)
Method in brief: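 Compounds tested in HCV genotype 1b-377-neo replicon cells with a FRET read-out. Cells resistant to a reference NS5A inhibitor through a Y2065H NS5A mutation were run alongside wild-type cells.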

| SMILES | EC50 |
| --- | --- |
| COC(=O)N[C@@H](C(=O)N1CCC[C@H]1c1ncc(-c2ccc(-c3ccc(-c4cnc([C@@H]5CCCN5C(=O)[C@@H]5CCCO5)[nH]4)cc3C)cc2)[nH]1)c1ccccc1 [Example 128, methyl ((1R)-2-((2S)-2-(5-(2′-methyl-4′-(2-((2S)-1-((2S)-tetrahydro-2-furanylcarbonyl)-2-pyrrolidinyl)-1H-imidazol-5-yl)-4-biphenylyl)-1H-imidazol-2-yl)-1-pyrrolidinyl)-2-oxo-1-phenylethyl)carbamate] | 0.001 to 0.999 nM |
| CCNC(=O)N[C@@H](C(=O)N1C[C@H](O)C[C@H]1c1ncc(-c2ccc(-c3ccc(-c4cnc([C@@H]5C[C@@H](O)CN5C(=O)[C@H](NC(=O)NCC)c5ccccc5)[nH]4)cc3)cc2)[nH]1)c1ccccc1 [Example 24-14, N′,N′′′-(4,4′-biphenyldiylbis(1H-imidazole-5,2-diyl((2S,4R)-4-hydroxy-2,1-pyrrolidinediyl)((1R)-2-oxo-1-phenyl-2,1-ethanediyl)))bis(1-ethylurea)] | 1 to 99 nM |
| COC(=O)N[C@H](C(=O)N1CCC[C@H]1c1nc(-c2ccc(-c3ccc(-c4c[nH]c([C@@H]5CCCN5C(=O)[C@H](C)NC5CCOCC5)n4)cc3)cc2)c[nH]1)C(C)C [Example F48, methyl ((1S)-2-methyl-1-(((2S)-2-(4-(4′-(2-((2S)-1-(N-(tetrahydro-2H-pyran-4-yl)-L-alanyl)-2-pyrrolidinyl)-1H-imidazol-4-yl)-4-biphenylyl)-1H-imidazol-2-yl)-1-pyrrolidinyl)carbonyl)propyl)carbamate] | 0.001 to 0.999 nM |
| CCN(CC)CCC(NC(=O)OC)C(=O)N1CCC[C@H]1c1ncc(-c2ccc(-c3ccc(-c4cnc([C@@H]5CCCN5C(=O)[C@@H](NC(=O)OC)C(C)C)[nH]4)cc3)cc2)[nH]1 (stereo partly drawn) [Example M67a, methyl ((1S)-1-(((2S)-2-(5-(4′-(2-((2S)-1-(4-(diethylamino)-2-((methoxycarbonyl)amino)butanoyl)-2-pyrrolidinyl)-1H-imidazol-5-yl)-4-biphenylyl)-1H-imidazol-2-yl)-1-pyrrolidinyl)carbonyl)-2-methylpropyl)carbamate] | 100 to 999 nM |
| COC(=O)N[C@H](C(=O)N1CCC[C@H]1c1ncc(-c2ccc(-c3ccc(-c4cnc([C@]5(C)CCCN5C(=O)[C@@H](NC(=O)OC)C(C)C)[nH]4)cc3)cc2)[nH]1)C(C)C [LS36, methyl ((1S)-1-(((2S)-2-(5-(4′-(2-((2S)-1-((2S)-2-((methoxycarbonyl)amino)-3-methylbutanoyl)-2-pyrrolidinyl)-1H-imidazol-5-yl)-4-biphenylyl)-1H-imidazol-2-yl)-2-methyl-1-pyrrolidinyl)carbonyl)-2-methylpropyl)carbamate] | 0.001 to 0.999 nM |
| COC(=O)N[C@H](C(=O)N1CCC[C@H]1c1ncc(-c2ccc(-c3ccc(-c4cnc([C@@H]5CCCN5C(=O)[C@@H](NC(=O)OC)C(C)C)[nH]4)c(F)c3)cc2)[nH]1)C(C)C [Example D40, methyl ((1S)-1-(((2S)-2-(5-(3′-fluoro-4′-(2-((2S)-1-((2S)-2-((methoxycarbonyl)amino)-3-methylbutanoyl)-2-pyrrolidinyl)-1H-imidazol-5-yl)-4-biphenylyl)-1H-imidazol-2-yl)-1-pyrrolidinyl)carbony)-2-methylpropyl) carbamate] | 0.001 to 0.999 nM |
| COC(=O)N[C@H](C(=O)N1CCC[C@H]1c1ncc(-c2ccc(-c3ccc(-c4cnc([C@@H]5CCCN5C(=O)[C@@H](NC(=O)OC)C(C)OC)[nH]4)c(F)c3)cc2F)[nH]1)C(C)C (stereo in doubt) [Example D56, methyl ((1S,2R)-1-(((2S)-2-(5-(3,3′-difluoro-4′-(2-((2S)-1-(N-(methoxycarbonyl)-L-valyl)-2-pyrrolidinyl)-1H-imidazol-5-yl)-4-biphenylyl)-1H-imidazol-2-yl)-1-pyrrolidinyl)carbonyl)-2-methoxypropyl) carbamate] | 0.001 to 0.999 nM |
| COC(=O)N[C@@H](C)C(=O)N1CCC[C@H]1c1nc(-c2cnc(-c3ccc(-c4cnc([C@@H]5CCCN5C(=O)[C@H](C)NC(=O)OC)[nH]4)cc3)nc2)c[nH]1 [Example D73, methyl ((1S)-2-((2S)-2-(5-(4-(5-(2-((2S)-1-(N-(methoxycarbonyl)-L-alanyl)-2-pyrrolidinyl)-1H-imidazol-5-yl)-2-pyrimidinyl)phenyl)-1H-imidazol-2-yl)-1-pyrrolidinyl)-1-methyl-2-oxoethyl)carbamate] | 0.001 to 0.999 nM |
| CN(C)[C@@H](C(=O)N1C[C@@H](O)C[C@H]1c1ncc(-c2ccc(-c3ccc(-c4cnc([C@@H]5C[C@H](O)CN5C(=O)[C@@H](c5ccccc5)N(C)C)[nH]4)cc3)cc2)[nH]1)c1ccccc1 [Example 24-16, (3S,5S,3′S,5′S)-5,5′-(4,4′-biphenyldiylbis(1H-imidazole-5,2-diyl))bis(1-((2R)-2-(dimethylamino)-2-phenylacetyl)-3-pyrrolidinol)] | 0.001 to 0.999 nM |
| COC(=O)N[C@@H](C(=O)N1CCC[C@H]1c1ncc(-c2ccc(-c3ccc(-c4cnc([C@@H]5CCCN5C(=O)[C@@H](c5ccccc5)N(C)C)[nH]4)cc3C)cc2)[nH]1)c1ccccc1 [Example 126, methyl ((1R)-2-((2S)-2-(5-(4′-(2-((2S)-1-((2R)-2-(dimethylamino)-2-phenylacetyl)-2-pyrrolidinyl)-1H-imidazol-5-yl)-2′-methyl-4-biphenylyl)-1H-imidazol-2-yl)-1-pyrrolidinyl)-2-oxo-1-phenylethyl)carbamate] | 0.001 to 0.999 nM |
| CCN(CC)[C@@H](C(=O)N1CCC[C@H]1c1ncc(-c2ccc(-c3ccc(-c4cnc([C@@H]5CCCN5C(=O)[C@@H]5CCN5C(=O)OC)[nH]4)cc3)cc2)[nH]1)c1ccccc1 [cj-50, methyl (2S)-2-(((2S)-2-(5-(4′-(2-((2S)-1-((2R)-2-(diethylamino)-2-phenylacetyl)-2-pyrrolidinyl)-1H-imidazol-5-yl)-4-biphenylyl)-1H-imidazol-2-yl)-1-pyrrolidinyl)carbonyl)-1-azetidinecarboxylate] | 0.001 to 0.999 nM |
| COC(=O)N[C@@H](C(=O)N1CCC[C@H]1c1ncc(-c2ccc(-c3ncc(-c4cnc([C@@H]5CCCN5C(=O)Cc5cccnc5)[nH]4)cn3)cc2)[nH]1)c1ccccc1 [Example 152j-3, methyl ((1R)-2-oxo-1-phenyl-2-((2S)-2-(5-(4-(5-(2-((2S)-1-(3-pyridinylacetyl)-2-pyrrolidinyl)-1H-imidazol-5-yl)-2-pyrimidinyl)phenyl)-1H-imidazol-2-yl)-1-pyrrolidinyl)ethyl)carbamate] | 0.001 to 0.999 nM |
| CCN(CC)[C@H]1CC[C@@H](C(=O)N2CCC[C@H]2c2ncc(-c3ccc(-c4ccc(-c5cnc([C@@H]6CCCN6C(=O)[C@H]6CCCC[C@H]6NC(=O)OC)[nH]5)cc4)cc3)[nH]2)CC1 [cj-97, methyl ((1R,2S)-2-(((2S)-2-(5-(4′-(2-((2S)-1-((cis-4-(diethylamino)cyclohexyl)carbonyl)-2-pyrrolidinyl)-1H-imidazol-5-yl)-4-biphenylyl)-1H-imidazol-2-yl)-1-pyrrolidinyl)carbonyl)cyclohexyl)carbamate] | 0.001 to 0.999 nM |
| COC(=O)N[C@@H](C(=O)N1CCC[C@H]1c1ncc(-c2ccc(-c3ccc(-c4cnc([C@@H]5CCCN5C(=O)C5CCN(C(=O)OC(C)(C)C)CC5)[nH]4)cc3)cc2)[nH]1)c1ccccc1 [Example 84-36, tert-butyl 4-(((2S)-2-(5-(4′-(2-((2S)-1-((2R)-2-((methoxycarbonyl)amino)-2-phenylacetyl)-2-pyrrolidinyl)-1H-imidazol-5-yl)-4-biphenylyl)-1H-imidazol-2-yl)-1-pyrrolidinyl)carbonyl)-1-piperidinecarboxylate] | 0.001 to 0.999 nM |
| CC(=O)N[C@@H](C(=O)N1[C@@H]2C[C@@H]2C[C@H]1c1nc(-c2ccc(-c3ccc(-c4c[nH]c([C@@H]5C[C@H]6C[C@H]6N5C(=O)[C@H](NC(C)=O)C(C)C)n4)cc3)cc2)c[nH]1)C(C)C [Example M143, N-((1R)-1-(((1R,3S,5R)-3-(4-(4′-(2-((1R,3S,5R)-2-((2R)-2-acetamido-3-methylbutanoyl)-2-azabicyclo[3.1.0]hex-3-yl)-1H-imidazol-4-yl)-4-biphenylyl)-1H-imidazol-2-yl)-2-azabicyclo[3.1.0]hex-2-yl)carbonyl)-2-methylpropyl)acetamide] | 1 to 99 nM |
| CCN(CC)[C@@H](C(=O)N1CCC[C@H]1c1ncc(-c2ccc(-c3ccc(-c4cnc([C@@H]5CCCN5C(=O)[C@@H](c5ccccc5)N5CCCC5)[nH]4)cc3)cc2)[nH]1)c1ccccc1 [Example 99, (1R)-N,N-diethyl-2-oxo-1-phenyl-2-((2S)-2-(5-(4′-(2-((2S)-1-((2R)-2-phenyl-2-(1-pyrrolidinyl)acetyl)-2-pyrrolidinyl)-1H-imidazol-5-yl)-4-biphenylyl)-1H-imidazol-2-yl)-1-pyrrolidinyl)ethanamine] | 0.001 to 0.999 nM |
| COC(=O)N[C@@H](C(=O)N[C@@H](C)c1ncc(-c2ccc(-c3ccc(-c4cnc([C@@H]5CCCN5C(=O)[C@H](NC(=O)OC)c5ccccc5)[nH]4)cn3)cc2)[nH]1)c1ccccc1 [Example 152j-12, methyl ((1R)-2-((2S)-2-(5-(6-(4-(2-((1S)-1-(((2R)-2-((methoxycarbonyl)amino)-2-phenylacetyl)amino)ethyl)-1H-imidazol-5-yl)phenyl)-3-pyridinyl)-1H-imidazol-2-yl)-1-pyrrolidinyl)-2-oxo-1-phenylethyl)carbamate] | 0.001 to 0.999 nM |
| CC(=O)NCCC(=O)N1CCC[C@H]1c1ncc(-c2ccc(-c3ccc(-c4cnc([C@@H]5CCCN5C(=O)CCNC(C)=O)[nH]4)cc3)cc2)[nH]1 [cj-134, N-(3-((2S)-2-(5-(4′-(2-((2S)-1-(3-acetamidopropanoyl)-2-pyrrolidinyl)-1H-imidazol-5-yl)-4-biphenylyl)-1H-imidazol-2-yl)-1-pyrrolidinyl)-3-oxopropyl)acetamide] | 1 to 99 nM |
| Cc1cc(-c2cnc([C@@H]3CCCN3C(=O)[C@@H](c3ccccc3)N(C)C)[nH]2)ccc1-c1ccc(-c2cnc([C@@H]3CCCN3C(=O)[C@@H](c3ccccc3)N(C)C)[nH]2)cc1 [Example 123, (1R,1′R)-2,2′-((2-methyl-4,4′-biphenyldiyl)bis(1H-imidazole-5,2-diyl(2S)-2,1-pyrrolidinediyl))bis(N,N-dimethyl-2-oxo-1-phenylethanamine)] | 0.001 to 0.999 nM |
